Patent EP2725073B1, “Antifouling coating composition” (Jotun A/S, priority 2012, dated 2014)

Test: Determination of carbodiimide half-life by IR spectroscopy (reaction with acetic acid in xylene)
Assay type: physicochemical
Conditions: for Remarks: observation during reaction with acetic acid in xylene at 23±2°C; for Half-life: time for 50% of the carbodiimide compound to react with acetic acid in xylene at 23±2°C, carbodiimide absorption at 2100-2200 cm^-1
Experimental: In particular, the carbodiimides of the present invention have slower reactivity than those described in US2005/0255081A1. The reactivity of carbodiimide compounds can be expressed as the half-life, i.e. in this case the time it takes for 50% of the carbodiimide compound to react with the carboxylic acid.
The carbodiimide compound preferably has relatively slow reactivity. Reactivity is measured by way of the half-life of the carbodiimide, which is defined as the time taken for 50% of the carbodiimide compound to react with a carboxylic acid.
Solutions of the carbodiimide compounds and acetic acid in xylene are prepared. A carbodiimide solution and the acetic acid solution are mixed and the reaction between the carbodiimide compound and acetic acid at 23±2°C is monitored by following the carbodiimide absorption at 2100-2200 cm^-1 in an zinc selenide cell. The reaction is followed until approximately 50% of the carbodiimide compound has reacted.

SMILES	Remarks	Half-life
C(=NC1CCCCC1)=NC1CCCCC1 [1,3-Dicyclohexylcarbodiimide]	Precipitation of urea products	0.25 h
CC(C)N=C=NC(C)C [1,3-Diisopropylcarbodiimide]	Precipitation of urea products	0.75 h
Cc1ccccc1N=C=Nc1ccccc1C [1,3-Di-o-methylphenylcarbodiimide]		3 h
Cc1ccc(N=C=Nc2ccc(C)cc2)cc1 [1,3-Di-p-tolylcarbodiimide]		2 h
C[Si](C)(C)N=C=N[Si](C)(C)C [1,3-bis(trimethylsilyl)carbodiimide]	No reaction	
CC(C)c1cccc(C(C)C)c1N=C=Nc1c(C(C)C)cccc1C(C)C [Bis(2,6-diisopropylphenyl) carbodiimide]		30 h
